Measured values from patent publication US20240287138A1, “CYCLIC PEPTIDES FOR INHIBITING TNF RECEPTOR 1 ACTIVITY” (Merck Sharp & Dohme LLC, priority 2023, published 2024).
pIC50, pKd: −log10 of the molar value. Read-outs that look alike come from different tables or passages of the source. Numbered stars: 1 amine (or outer) side, 2 acyl side, 3 side chain; on linkers, the order of the positions; unused ones are H or OH. Bridge positions count the residues as written; N and C are the ends. Square brackets hold non-standard residues; d marks the D form. Peptide text beside a SMILES is read from it. Trp(βS-Me,7-OMe) = COc1cccc2c([C@H](C)[C@H](N)C(=O)O)c[nH]c12; Phe(3R-OH) = O=C([C@@H](N[*:1])[C@H](O[*:3])c1ccccc1)[*:2]; Morpholine(3S-CO,6,6-Me2) = CC1(C)CN[C@H](C(=O)O)CO1; Trp(7-Cl) = N[C@@H](Cc1c[nH]c2c(Cl)cccc12)C(=O)O; Phe(4-CONH2) = NC(=O)c1ccc(C[C@H](N)C(=O)O)cc1; Phe(4-COOH) = N[C@@H](Cc1ccc(C(=O)O)cc1)C(=O)O; Trp(7-aza) = N[C@@H](Cc1c[nH]c2ncccc12)C(=O)O; X58 = O=C([C@H](CCCCC(F)(F)F)N[*:1])[*:2]; X13 = O=C([C@H]1CC[C@@H](N[*:1])C1)[*:2]; X1 = O=C([C@@H]1CC[C@H](N[*:1])C1)[*:2]; Dap(CONH2) = NC(=O)NC[C@H](N)C(=O)O; Val(3-OH) = CC(C)(O)[C@H](N)C(=O)O; Pip(4-aza) = O=C(O)[C@@H]1CNCCN1; 4Pal = N[C@@H](Cc1ccncc1)C(=O)O; NMeE = CN[C@@H](CCC(=O)O)C(=O)O; αMeS = C[C@](N)(CO)C(=O)O; Nle = CCCC[C@H](N)C(=O)O; Sar = CNCC(=O)O

Tests used:
[1] = biological target: T1, TNFα-induced NF-κB signal transduction pathway (TNFR1 signaling) in THP-1 cells (Homo sapiens, UniProt P19438); assay: THP-1 Lucia NF-κB reporter cell assay, inhibition of TNFα-induced NF-κB signaling; format: cell-based; conditions: THP-1 NF-κB Lucia reporter cells, 10 ng/mL TNFα, 16-18 h, secreted luciferase; read-out: THP-1 IC50
T1 sequence (P19438 30-455): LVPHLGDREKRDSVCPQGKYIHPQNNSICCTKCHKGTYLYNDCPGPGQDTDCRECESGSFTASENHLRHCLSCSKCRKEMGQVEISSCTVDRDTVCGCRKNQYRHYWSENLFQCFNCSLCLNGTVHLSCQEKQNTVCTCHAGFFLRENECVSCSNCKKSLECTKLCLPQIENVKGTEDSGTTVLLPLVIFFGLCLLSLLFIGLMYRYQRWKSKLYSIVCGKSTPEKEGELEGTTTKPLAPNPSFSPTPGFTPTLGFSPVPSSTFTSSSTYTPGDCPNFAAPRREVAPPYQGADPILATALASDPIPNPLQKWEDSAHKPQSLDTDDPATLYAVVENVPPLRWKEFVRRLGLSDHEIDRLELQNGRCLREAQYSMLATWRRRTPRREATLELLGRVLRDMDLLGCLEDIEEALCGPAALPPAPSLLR
Method in brief: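 Macrocyclic peptides were preincubated 1 h at 37 °C with THP-1 NF-κB-Lucia reporter cells (20,000 cells/well) in antibiotic-free RPMI 1640/10% FBS, then stimulated with 10 ng/mL human TNFα overnight (16-18 h). Secreted luciferase in supernatant was read by luminescence; IC50 from 4-parameter logistic fits.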

[2] = biological target: T2, human soluble TNFR1 (sTNFR1) (Homo sapiens, UniProt P19438); assay: Human sTNFR1-peptide displacement assay (LanthaScreen Eu TR-FRET binding assay)
T2 construct: made in house; host or cells: Sf21 (baculovirus)
T2 sequence (P19438 with tags, fused parts or gaps): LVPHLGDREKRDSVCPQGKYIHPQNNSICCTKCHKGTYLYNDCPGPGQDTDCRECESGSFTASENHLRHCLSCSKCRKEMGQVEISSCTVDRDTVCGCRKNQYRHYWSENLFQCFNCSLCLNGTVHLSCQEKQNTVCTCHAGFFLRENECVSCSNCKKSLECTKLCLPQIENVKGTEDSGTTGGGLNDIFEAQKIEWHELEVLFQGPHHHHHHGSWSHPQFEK
Method in brief: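 Readout is the 665/615 nm TR-FRET ratio (Eu anti-His donor, streptavidin-Alexa647 acceptor), normalized to DMSO and saturating displacer, fit by Morrison-based five-parameter logistic for Kd^app. His-tagged sTNFR1 (1-211) prebound to 100 nM biotinylated peptide SEQ ID NO.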

SMILES	pIC50 [1]	pIC50 [2]	pKd [2]	pKd ([2]; displacement of biotinylated peptide SEQ ID NO. 1 from sTNFR1, 20 point titration, 5-parameter fit based on Morrison equation (tight binding), read-out: TR-FRET Kd^app)	pIC50 ([2]; displacement of biotinylated peptide SEQ ID NO. 1 from sTNFR1, weaker binders, 10 pts titration, 4-parameter logistic model, read-out: TR-FRET, IC50)
CCCC[C@@H]1NC(=O)CSC[C@@H](C(N)=O)NC(=O)[C@H]([C@@H](C)c2c[nH]c3c(OC)cccc23)NC(=O)CN(C)C(=O)[C@H](Cc2ccc(O)cc2)NC(=O)[C@H](Cc2ccc(C(=O)O)cc2)NC(=O)[C@](C)(CO)NC(=O)[C@H](Cc2c[nH]c3c(Cl)cccc23)NC(=O)[C@H](Cc2ccncc2)NC(=O)[C@H](CC(N)=O)NC(=O)[C@H](CCC(=O)O)N(C)C(=O)[C@H](Cc2c[nH]c3ncccc23)NC(=O)[C@H]([C@H](O)c2ccccc2)NC(=O)[C@H](Cc2ccncc2)NC1=O [SEQ ID NO. 211] ({CH2CO}-[Nle][4Pal][Phe(3R-OH)][Trp(7-aza)][NMeE]N[4Pal][Trp(7-Cl)][αMeS][Phe(4-COOH)]Y[Sar][Trp(βS-Me,7-OMe)]C-NH2; thioether N-14)	8.48	9.10	9.20	–	–
COc1cccc2c([C@H](C)[C@@H]3NC(=O)CN(C)C(=O)[C@H](Cc4ccc(O)cc4)NC(=O)[C@H](Cc4ccc(C(=O)O)cc4)NC(=O)[C@](C)(CO)NC(=O)[C@H](Cc4c[nH]c5c(Cl)cccc45)NC(=O)[C@H](Cc4ccncc4)NC(=O)[C@H](CC(N)=O)NC(=O)[C@H](CCC(=O)O)N(C)C(=O)[C@H](Cc4c[nH]c5ccccc45)NC(=O)[C@@H]4CNCCN4C(=O)[C@H](Cc4ccncc4)NC(=O)[C@H](CCCCC(F)(F)F)NC(=O)[C@@H]4CC[C@@H](C4)NC3=O)c[nH]c12 [SEQ ID NO. 213] (cyclo([4Pal][Trp(7-Cl)][αMeS][Phe(4-COOH)]Y[Sar][Trp(βS-Me,7-OMe)][X1][X58][4Pal][Pip(4-aza)]W[NMeE]N))	9.00	–	9.51	–	–
CCCC[C@@H]1NC(=O)[C@H]2CC[C@H](C2)NC(=O)[C@H]([C@@H](C)c2c[nH]c3c(OC)cccc23)NC(=O)CN(C)C(=O)[C@H](Cc2ccc(O)cc2)NC(=O)[C@H](Cc2ccc(C(N)=O)cc2)NC(=O)[C@](C)(CO)NC(=O)[C@H](Cc2c[nH]c3c(Cl)cccc23)NC(=O)[C@H](Cc2ccncc2)NC(=O)[C@H](CC(N)=O)NC(=O)[C@H](CCC(=O)O)N(C)C(=O)[C@H](Cc2c[nH]c3ccccc23)NC(=O)[C@@H]2COC(C)(C)CN2C(=O)[C@H](Cc2ccncc2)NC1=O [SEQ ID NO. 214] (cyclo([4Pal][Trp(7-Cl)][αMeS][Phe(4-CONH2)]Y[Sar][Trp(βS-Me,7-OMe)][X13][Nle][4Pal][Morpholine(3S-CO,6,6-Me2)]W[NMeE]N))	8.43	–	–	9.21	9.02
CCCC[C@@H]1NC(=O)CSC[C@@H](C(N)=O)NC(=O)[C@H]([C@@H](C)c2c[nH]c3c(OC)cccc23)NC(=O)CN(C)C(=O)[C@H](Cc2ccc(O)cc2)NC(=O)[C@H](Cc2ccc(C(=O)O)cc2)NC(=O)[C@](C)(CO)NC(=O)[C@H](Cc2c[nH]c3c(Cl)cccc23)NC(=O)[C@H](Cc2ccncc2)NC(=O)[C@H](CC(N)=O)NC(=O)[C@H](CCC(=O)O)N(C)C(=O)[C@H](Cc2c[nH]c3ncccc23)NC(=O)[C@H](C(C)(C)O)NC(=O)[C@H](Cc2c[nH]cn2)NC1=O [SEQ ID NO. 217] ({CH2CO}-[Nle]H[Val(3-OH)][Trp(7-aza)][NMeE]N[4Pal][Trp(7-Cl)][αMeS][Phe(4-COOH)]Y[Sar][Trp(βS-Me,7-OMe)]C-NH2; thioether N-14)	8.36	9.00	9.14	–	–
CCCC[C@@H]1NC(=O)[C@@H]2CC[C@@H](C2)NC(=O)[C@H]([C@@H](C)c2c[nH]c3c(OC)cccc23)NC(=O)CN(C)C(=O)[C@H](Cc2ccc(O)cc2)NC(=O)[C@H](Cc2ccc(C(=O)O)cc2)NC(=O)[C@](C)(CO)NC(=O)[C@H](Cc2c[nH]c3c(Cl)cccc23)NC(=O)[C@H](Cc2ccncc2)NC(=O)[C@H](CNC(N)=O)NC(=O)[C@H](CCC(=O)O)N(C)C(=O)[C@H](Cc2c[nH]c3ccccc23)NC(=O)[C@@H]2CNCCN2C(=O)[C@H](Cc2ccncc2)NC1=O [SEQ ID NO. 225] (cyclo([4Pal][Trp(7-Cl)][αMeS][Phe(4-COOH)]Y[Sar][Trp(βS-Me,7-OMe)][X1][Nle][4Pal][Pip(4-aza)]W[NMeE][Dap(CONH2)]))	9.05	–	9.57	–	–
